Each block holds one compound with its values, some of them ahead of it.
Tests used:
[1] = test system: wild type C57B1/6 male mice; experiment: Imiquimod-induced type 17 skin inflammation, topical treatment; assay type: in vivo, mouse; settings: for Il17a and Il17f expression in the skin (qRT-PCR) / skin inflammation (ear thickness): imiquimod 6 days, then continued imiquimod plus topical twice a day: LRE1 3%, Clobetasol 0.05%; for skin inflammation (ear thickness): Example 1 […]
Procedure: Wild type C57B1/6 male mice 8-10 week old were purchased from Jackson labs. A 7 mm diameter circle was shaved and treated with Nair on the flank. Baseline ear thickness was measured. For 5 days, mice received daily treatment of 30 mg of 5% imiquimod cream (Taro) to each ear and to the 7 mm area on the flank. Ear thickness was recorded on days 3 and 5 to ensure peak inflammation had occurred. Mice were then randomized into three cohorts: vehicle, LRE1, and Clobetasol. […] Treatment with imiquimod was continued during this period as above. Ear thickness was recorded every day before the first dose of drug. On day 11, all mice were euthanized. A 7 mm punch biopsy was collected from the flank and both ears were removed. Skin was stored in RNAlater (Sigma) for qPCR or 10% formalin for immunohistochemistry.
For tissue, RNA was isolated according to specifications of the RNA easy plus universal mini kit (Qiagen). Tissue was homogenized using stainless steel beads in a bead beater. For frozen cell pellets, RNA was isolated according to specifications of the RNA easy plus mini kit (Qiagen). Samples were homogenized using Qiashredder columns (Qiagen). RNA quality control was performed using a nanodrop spectrophotometer. cDNA was made using the high-capacity rna-to-cdna kit (thermo fischer). The applied biosystems power SYBR green PCR master mix was used for qPCR. 40 cycles with annealing temperatures of 60 degrees celsius and a melting curve were performed using the QuantStudio 6 real-time PCR instrument (thermo fischer). Delta delta CT analysis was performed to determine relative transcription amongst samples normalized to GAPDH.

[2] = test system: purified recombinant human sAC protein; assay type: biochemical; settings: 1 mM ATP, 2 mM CaCl2, 4 mM MgCl2, 40 mM NaHCO3
Procedure: Assays for sAC activity using purified protein were performed in 100 μl reactions containing 4 mM MgCl2, 2 mM CaCl2, 1 mM ATP, 40 mM NaHCO3, 50 mM Tris pH 7.5, and 3 mM DTT. Each reaction contained ˜1,000,000 counts of α-^32P labeled ATP.
All in vitro adenylyl cyclase activity assays were performed via the “two-column” method measuring the conversion of [α-^32P] ATP into [^32P] cAMP, as previously described [References 81, 82]. Briefly, human sACt protein [Reference 21] was incubated in buffer containing 50 mM Tris-HCl, pH 7.5, 4 mM MgCl2, 2 mM CaCl2, 1 mM ATP, 3 mM DTT, 40 mM NaHCO3 in the presence of the indicated concentrations of different sAC inhibitors or vehicle (DMSO).

[3] = cited from earlier work

Compound: C[C@H]1C[C@H]2[C@@H]3CCC4=CC(=O)C=C[C@]4(C)[C@@]3(F)[C@@H](O)C[C@]2(C)[C@@]1(O)C(=O)CCl [Clobetasol]
Il17a and Il17f expression in the skin (qRT-PCR) [1]: significant reductions in Il17a and Il17f expression
skin inflammation (ear thickness) [1]: significant reduction in skin inflammation

Compound: Cn1cc(Cc2ccccc2OCCN2CCOCC2)c(-c2cc(Cl)nc(N)n2)n1 [Example 69, 4-chloro-6-[1-methyl-4-[[2-(2-morpholinoethoxy)phenyl]methyl]pyrazol-3-yl]pyrimidin-2-amine]
reduction in inflammation ([1]; imiquimod for one week, then imiquimod plus compound, over 4 days, N=5): 50%

Compound: Nc1nc(Cl)cc(N(Cc2ccsc2)C2CC2)n1 [LRE1]
inflammation in the ears measured by ear calipers ([1]; applied at the same time as imiquimod, N=5): reduce the inflammation
Il17a and Il17f expression in the skin (qRT-PCR) [1]: significant reductions in Il17a and Il17f expression
skin inflammation (ear thickness) [1]: significant reduction in skin inflammation

Compound: CCCc1nn(C)c2c(=O)[nH]c(-c3cc(S(=O)(=O)N4CCN(C)CC4)ccc3OCC)nc12 [sildenafil]
half-lives [3]: 4 to 5 h

Compound: CCCc1nc(C)c2c(=O)[nH]c(-c3cc(S(=O)(=O)N4CCN(CC)CC4)ccc3OCC)nn12 [vardenafil]
half-lives [3]: 4 to 5 h

Other lines, results leading:

IC50 [2]: 0.075 µM
Compound: Cn1cc(Cc2cccc(Cl)c2)c(-c2cc(Cl)nc(N)n2)n1 [Example 11]

IC50 [2]: ~1 µM
Compound: Cn1cc(Cc2ccc(Cl)cc2)c(-c2cc(Cl)nc(N)n2)n1 [Example 13]

IC50 [2]: 0.06 µM
Compound: Cn1cc(Cc2ccccc2Cl)c(-c2cc(Cl)nc(N)n2)n1 [Example 15]

IC50 [2]: 0.11 µM
Compound: Nc1nc(Cl)cc(-c2nn(C(F)F)cc2Cc2ccccc2)n1 [Example 18]

IC50 [2]: 0.058 µM
Compound: COc1ccccc1Cc1cn(C)nc1-c1cc(Cl)nc(N)n1 [Example 28]

IC50 [2]: 1.2 µM
Compound: CNC(=O)c1ccccc1Cc1cn(C)nc1-c1cc(Cl)nc(N)n1 [Example 52]

IC50 [2]: 0.015 µM
Compound: Nc1nc(Cl)cc(-c2nn(C(F)F)cc2Cc2ccccc2OCC(=O)N2CCOCC2)n1 [Example 95]

Reference: US20240239774A1, “SOLUBLE ADENYLYL CYCLASE (SAC) INHIBITORS AND USES THEREOF” (Cornell University, priority 2021, published 2024)
